Assay results taken from patent US11753408B2, “Compounds and method for blocking transmission of malarial parasite” (The United States of America, as represented by the …, priority 2016, dated 2023).

How the values were obtained:
mTOR = mTOR (Homo sapiens, UniProt P42345); test: mTOR activity (no method described); assay type: biochemical
[1] = test system: Asexual parasites of P. falciparum strain 3D7; test: In vitro drug activity on asexual parasites (SYBR Green assay); assay type: cell-based, Plasmodium falciparum
Procedure, shortened: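 SYBR Green I fluorescence (ex 490, em 520 nm) was read after freeze-thaw lysis and 30 min staining at room temperature. Before that, drug-treated cultures (0.5% parasitemia, 2% hematocrit, DMSO ≤0.5%) were incubated 72 h, in duplicate.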

PAMPA permeability = assay type: in vitro ADME
[2] = Microsomal stability (rat); assay type: in vitro ADME; conditions: rat microsomes
Solubility at pH 7.4 = assay type: physicochemical
[3] = test system: Stage III-V gametocytes (blood stage P. falciparum parasites); test: In vitro drug activity on gametocytes (AlamarBlue viability assay); assay type: cell-based, Plasmodium falciparum; conditions: read-out: Gametocyte EC50
Procedure, shortened: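 Viability was measured by AlamarBlue fluorescence (Ex 525/Em 598 nm) after 24 h dye incubation following 72 h compound exposure at 37° C, 5% CO2. Gametocytes, stage III–V from strains 3D7, HB3 and Dd2, were NAG/Percoll-enriched and plated at 20,000 cells/well.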

SMILES	mTOR (mTOR) [µM]	EC50 [1] [nM]	PAMPA Permeability (PAMPA permeability) [×10⁻⁶ cm/s]	Microsomal Stability (rat) T1/2 [2] [min]	Sol @ pH 7.4 (Solubility at pH 7.4) [ug/mL]	EC50 [3] [nM]
O=C(NC1CCCCCC1)c1ccc(-n2c(=O)ccc3cnc4ccc(-c5ccc(Cl)cc5)cc4c32)cc1 [Compound 157]	50	3350	< 1	6.8	<1.0	7430
O=C(NC1CC1c1ccccc1)c1ccc(-n2c(=O)ccc3cnc4ccc(-c5ccc(Cl)cc5)cc4c32)cc1 (stereo not drawn) [Compound 158]	7.899	1560	< 2.4	18.8	<1.0	3560
O=C(NC1C2CNCC21)c1ccc(-n2c(=O)ccc3cnc4ccc(-c5ccc(Cl)cc5)cc4c32)cc1 (stereo not drawn) [Compound 172]	0.9678	121	12.3	>30.0	2.3	203
Cc1cc(=O)n(-c2ccc(C(=O)NC3CC3)cc2)c2c1cnc1ccc(-c3ccc(Cl)cc3)cc12 [Compound 179]	100	451	< 1	19.4	<1	1700
CN(C)C(=O)c1cccc(-n2c(=O)ccc3cnc4ccc(-c5ccc(N)nc5)cc4c32)c1 [Compound 332]	0.4949	859	31.9	>30.0	>64.0	1520
CNC(=O)c1ccc(-n2c(=O)ccc3cnc4ccc(-c5ccc(N)nc5)cc4c32)cc1 [Compound 335]	0.02821	14.4	< 2.2	>30.0	2.8	17.7
NC(=O)c1ccc(-n2c(=O)ccc3cnc4ccc(-c5ccc(N)nc5)cc4c32)cc1 [Compound 336]	0.01971	10.2	< 3.6	>30.0	<1.0	41
Cc1ccc(C#N)cc1-n1c(=O)n(C)c2cnc3ccc(-c4ccc(Cl)cc4)cc3c21 [Compound 400]	100	165	1460	>30.0	<1.0	294
Cn1c(=O)n(-c2cccc(C#N)c2)c2c3cc(-c4cccc(C#N)c4)ccc3ncc21 [Compound 401]	1.271	86.7	297	>30.0	<1.0	190
Cn1c(=O)n(-c2cccc(C#N)c2)c2c3cc(-c4ccc(F)cc4)ccc3ncc21 [Compound 402]	53.21	140	223	>30.0	1.9	343
N#Cc1cccc(-n2c(=O)n(CCO)c3cnc4ccc(-c5ccc(Cl)cc5)cc4c32)c1 [Compound 404]	50	681	19.5	>30.0	0.9	1640
CN(C)Cc1ccc(-c2ccc3ncc4c(c3c2)n(-c2cccc(C#N)c2)c(=O)n4C)cc1 [Compound 436]	12.45	892	767	>30.0	52.9	1970
Cc1ccc(-c2ccc3ncc4c(c3c2)n(-c2cccc(C#N)c2)c(=O)n4C)cc1 [Compound 438]	100	174	< 1	27.2	<1.0	169

Continued, in another order:

mTOR (mTOR) [µM]	EC50 [1] [nM]	PAMPA Permeability (PAMPA permeability) [×10⁻⁶ cm/s]	Microsomal Stability (rat) T1/2 [2] [min]	Sol @ pH 7.4 (Solubility at pH 7.4) [ug/mL]	SMILES	EC50 [3] [nM]
9.278	96.1	< 1	>30.0	>79.0	CN(C)Cc1ccc(-c2ccc3ncc4ccc(=O)n(-c5ccc(C(=O)N(CCO)CCO)cc5)c4c3c2)cc1 [Compound 160]	270
47.05	512	5.4	>30.0	>82.0	CN(C)Cc1ccc(-c2ccc3ncc4ccc(=O)n(-c5ccc(C(=O)N6CC7CN(C)CC7C6)cc5)c4c3c2)cc1 (stereo not drawn) [Compound 161]	1540
32.08	368	< 1	>30.0	>83.0	CN(C)Cc1ccc(-c2ccc3ncc4ccc(=O)n(-c5ccc(C(=O)N6CCN(CCO)CC6)cc5)c4c3c2)cc1 [Compound 162]	895
6.497	93.9	232	>30.0	>72.0	CN(C)Cc1ccc(-c2ccc3ncc4ccc(=O)n(-c5ccc(C(=O)NC6CC6)cc5)c4c3c2)cc1 [Compound 163]	246
40.42	594	238	>30.0	>79.0	CN(C)Cc1ccc(-c2ccc3ncc4ccc(=O)n(-c5ccc(C(=O)N6CCN(C)CC6)cc5)c4c3c2)cc1 [Compound 164]	809
50	934	1.8	>30.0	>80.0	CN(C)Cc1ccc(-c2ccc3ncc4ccc(=O)n(-c5ccc(C(=O)N6CC7CC6CN7C)cc5)c4c3c2)cc1 (stereo not drawn) [Compound 165]	4090
8.762	72.7	427	>30.0	>70.0	CN(C)Cc1ccc(-c2ccc3ncc4ccc(=O)n(-c5ccc(C(=O)N(C)C)cc5)c4c3c2)cc1 [Compound 166]	179
22.69	223	1.5	>30.0	>76.0	CN(C)Cc1ccc(-c2ccc3ncc4ccc(=O)n(-c5ccc(C(=O)N6CCNCC6)cc5)c4c3c2)cc1 [Compound 167]	469
3.773	122	591	13.3	2.7	N#Cc1ccc(-c2ccc3ncc4ccc(=O)n(-c5ccc(C(=O)N6CCOCC6)cc5)c4c3c2)cc1 [Compound 170]	168
0.1543	47.5	31.3	2.8	>72.0	O=Cc1ccc(-c2ccc3ncc4ccc(=O)n(-c5ccc(C(=O)N6CCOCC6)cc5)c4c3c2)cn1 [Compound 171]	240
7.636	133	49.9	>30.00	>68.00	CNC(=O)c1ccc(-n2c(=O)ccc3cnc4ccc(-c5ccc(CN(C)C)cc5)cc4c32)cc1 [Compound 174]	265
2.454	931	3.8	>30	43.7	NCc1cccc(-c2ccc3ncc4ccc(=O)n(-c5ccc(C(=O)N6CCOCC6)cc5)c4c3c2)c1 [Compound 180]	1820
0.8304	1580	36.3	>30	17.3	NC1(c2ccc(-c3ccc4ncc5ccc(=O)n(-c6ccc(C(=O)N7CCOCC7)cc6)c5c4c3)cc2)CCC1 [Compound 181]	1920
0.7945	49.8	< 1	>30	28.4	NCCc1ccc(-c2ccc3ncc4ccc(=O)n(-c5ccc(C(=O)N6CCOCC6)cc5)c4c3c2)cc1 [Compound 183]	131
18.05	171	292	>30	56.1	O=C(c1ccc(-n2c(=O)ccc3cnc4ccc(-c5ccc(CN6CCCC6)cc5)cc4c32)cc1)N1CCOCC1 [Compound 184]	821
50	352	35.5	15.1	3.4	O=C(c1ccc(-n2c(=O)ccc3cnc4ccc(-c5ccc(CN6CCOCC6)cc5)cc4c32)cc1)N1CCOCC1 [Compound 185]	1140
0.08872	8.21	14.9	>30.0	30	Nc1ccc(-c2ccc3ncc4ccc(=O)n(-c5ccc(C(=O)N6CCOCC6)cc5)c4c3c2)cn1 [Compound 334]	19.7
